Legend:
[1] = xn = mol fraction of the nth substance listed; conditions: 293.15 K; for surface tension liquid-gas: Pendant drop shape; for mass density: 101 kPa, Liquid
[2] = 293.15 K; for surface tension liquid-gas: Pendant drop shape; for mass density: 101.33 kPa, Liquid

CC#N [acetonitrile] + CCCO
[1]
Conditions	mass density [kg/m3]	surface tension liquid-gas [mN/m]
x1 = 0.1004	799.54	24.02
x1 = 0.2018	797.63	24.23
x1 = 0.3013	795.62	24.52
x1 = 0.5004	791.05	25.32
x1 = 0.7003	785.97	26.5
x1 = 0.8002	783.29	27.27
x1 = 0.8997	780.68	28.19

CCCCCO [pentan-1-ol]
[2]
Conditions	mass density [kg/m3]	surface tension liquid-gas [mN/m]
–	815.11	25.46

CC#N [acetonitrile] + CCO
[1]
Conditions	mass density [kg/m3]	surface tension liquid-gas [mN/m]
x1 = 0.0999	786.57	22.81
x1 = 0.2007	785.99	23.3
x1 = 0.3039	785.05	23.85
x1 = 0.5001	783.08	25.06
x1 = 0.6994	780.89	26.51
x1 = 0.8013	779.8	27.36
x1 = 0.8996	778.91	28.26

CCCCCO [pentan-1-ol] + CC#N
[1]
Conditions	mass density [kg/m3]	surface tension liquid-gas [mN/m]
x2 = 0.1003	812.2	25.49
x2 = 0.2031	809.06	25.54
x2 = 0.3014	806.03	25.57
x2 = 0.5003	799.64	25.82
x2 = 0.7	792.42	26.64
x2 = 0.8001	788.11	27.29
x2 = 0.8993	783.38	28.11

CC#N [acetonitrile] + CO
[1]
Conditions	mass density [kg/m3]	surface tension liquid-gas [mN/m]
x1 = 0.1001	788.46	23.8
x1 = 0.2011	788.04	24.73
x1 = 0.2996	787.13	25.53
x1 = 0.4997	784.82	26.85
x1 = 0.7012	782.13	27.94
x1 = 0.8009	780.75	28.42
x1 = 0.8956	779.47	28.85

CC#N [acetonitrile]
[2]
Conditions	mass density [kg/m3]	surface tension liquid-gas [mN/m]
–	778.3	29.25

CCO [ethanol]
[2]
Conditions	mass density [kg/m3]	surface tension liquid-gas [mN/m]
–	786.44	22.31

CC#N [acetonitrile] + CCCCO
[1]
Conditions	mass density [kg/m3]	surface tension liquid-gas [mN/m]
x1 = 0.1026	805.36	24.65
x1 = 0.2021	803.18	24.78
x1 = 0.302	800.8	24.94
x1 = 0.5024	795.42	25.52
x1 = 0.7014	789.23	26.53
x1 = 0.8007	785.7	27.25
x1 = 0.8995	782.01	28.14

CCCO [propan-1-ol]
[2]
Conditions	mass density [kg/m3]	surface tension liquid-gas [mN/m]
–	801.3	23.78

CCCCO [butan-1-ol]
[2]
Conditions	mass density [kg/m3]	surface tension liquid-gas [mN/m]
–	807.33	24.5

CO [methanol]
[2]
Conditions	mass density [kg/m3]	surface tension liquid-gas [mN/m]
–	787.83	22.78
